Measurements from PubChem BioAssay (NCI).
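Briefly, cells in 96-well plates were exposed to five compound concentrations for 48 h, and endpoints were estimated by linear interpolation. Here, GI50 denotes the concentration required for 50% inhibition of growth. TGI marks complete inhibition of growth.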

Columns and labels:
Test in all cases: inhibition of tumour cell growth, NCI panel, 48 h
[1] = tested on: COLO 205 colon
[2] = tested on: HS 578T breast
[3] = tested on: TK-10 renal
[4] = tested on: HCT-15 colon
[5] = tested on: A549 NSCLC
[6] = tested on: SF-539 CNS
[7] = tested on: NCI/ADR-RES ovarian
[8] = tested on: HT29 colon
[9] = tested on: CCRF-CEM leukemia
[10] = tested on: SNB-75 CNS

SMILES | GI50 [1] [µM] | TGI [1] [µM] | GI50 [2] [µM] | TGI [2] [µM] | GI50 [3] [µM] | TGI [3] [µM] | GI50 [4] [µM] | TGI [4] [µM] | GI50 [5] [µM] | TGI [5] [µM] | GI50 [6] [µM] | TGI [6] [µM] | GI50 [7] [µM] | TGI [7] [µM] | TGI [8] [µM] | TGI [9] [µM] | TGI [10] [µM] | GI50 [8] [µM] | GI50 [9] [µM] | GI50 [10] [µM]
NC(N)=N/N=C/c1c(-c2ccccn2)nc2sc(Cl)cn12 | 6.26 | 17 | 8.91 | 17.3 | 8.13 | 15.1 | 8.15 | 14.9 | 6.87 | 14 | 1.54 | 3.49 | 13.6 | 35.6 | – | – | – | – | – | –
CC1(C)OC(=O)C=C([O-])O1.CC1(C)OC(=O)C=C([O-])O1.O=c1c(O)c(-c2ccc([O-])cc2[O-])oc2cc(O)cc(O)c12.[Ti+4] | – | > 100 | – | – | – | > 100 | – | > 100 | – | > 100 | – | 60.2 | – | – | > 100 | > 100 | 60.4 | – | – | –
Oc1c2c(c(O)c3ccccc13)=N[C@@H](c1ccccc1)[C@H](c1ccccc1)N=2 | – | – | – | – | – | > 100 | – | > 100 | – | > 100 | – | > 100 | – | – | > 100 | > 100 | > 100 | – | – | –
C=C1C(=O)O[C@H]2[C@H]1CC/C(COC(=O)c1cc3cc(OC)ccc3[nH]1)=C\CC[C@@]1(C)O[C@@H]21 | 1.18 | 2.72 | 3.09 | 11.8 | 1.28 | 2.54 | 0.323 | 1.6 | 1.66 | 3.38 | 1.02 | 2.25 | 1.68 | 4.9 | 1.47 | 1.57 | – | 0.351 | 0.348 | –
COc1cc(/C=C/C(=N\NC(=O)c2ccccc2)c2sc(Nc3ccc(Cl)c(Cl)c3)nc2C)ccc1O | – | > 100 | – | – | – | > 100 | – | > 100 | – | > 100 | – | > 100 | – | – | > 100 | > 100 | > 100 | – | – | –
COc1cc(/C=C\c2ccc(O)cc2)cc(OC)c1OC | – | 13.9 | – | – | – | > 100 | – | > 100 | – | > 100 | – | > 100 | – | – | > 100 | > 100 | > 30 | – | – | –
CCOc1cccc2nc3cccc(C(=O)NCCN(C)C)c3nc12 | – | 3.52 | – | – | – | 7.9 | – | 7.47 | – | > 100 | – | 6.77 | – | – | 7.14 | – | 11.6 | – | – | –
CCOC(=O)Cc1nc(/C(C#N)=C/c2ccco2)[nH]c(=O)c1C#N | – | > 100 | – | – | – | > 100 | – | > 100 | – | > 100 | – | > 100 | – | – | > 100 | > 100 | > 100 | – | – | –
CCOC(=O)/C(=C/c1ccco1)P(=O)(OCC)OCC | – | > 100 | – | – | – | > 100 | – | > 100 | – | > 100 | – | > 100 | – | – | > 100 | > 100 | > 100 | – | – | –
NS(=O)(=O)c1ccc(NC(=O)c2cccc3c(=O)c4ccccc4[nH]c23)cc1 | – | > 100 | – | – | – | > 100 | – | > 100 | – | > 100 | – | > 100 | – | – | > 100 | > 100 | 55.2 | – | – | –
Cn1c(N)nc2c(nc(OCc3ccccc3)n2C2OC(CO)C(O)C2O)c1=O (centres undefined) | – | > 100 | – | > 100 | – | > 100 | – | – | – | > 100 | – | – | – | – | > 100 | > 100 | > 100 | – | – | –
N#Cc1c(N)c(C(=O)O)nn(-c2cccc(C(F)(F)F)c2)c1=O | – | > 100 | – | – | – | > 100 | – | > 100 | – | > 100 | – | > 100 | – | – | > 100 | > 100 | > 100 | – | – | –
NC(CCSCC(F)F)C(=O)O (centres undefined) | – | > 100 | – | – | – | > 100 | – | > 100 | – | > 100 | – | > 100 | – | – | > 100 | > 100 | > 100 | – | – | –
Cc1cc(C)nc(NS(=O)(=O)c2ccc(Nc3c4ccccc4nc4c(C(=O)N5CCN(CCOS(C)(=O)=O)CC5)ccc(Cl)c34)cc2)n1 | – | > 100 | – | – | – | > 100 | – | > 100 | – | > 100 | – | > 100 | – | – | > 100 | > 100 | > 100 | – | – | –
O=c1c2ccccc2c2c3c1cccc3c1cccc3c(=O)c4ccccc4c2c31 | – | > 100 | – | – | – | > 100 | – | > 100 | – | > 100 | – | > 100 | – | – | > 100 | > 100 | > 100 | – | – | –
COc1ccc(C2=NC(C)(C)CO2)cc1 | – | > 100 | – | – | – | > 100 | – | > 100 | – | > 100 | – | > 100 | – | – | > 100 | > 100 | > 100 | – | – | –
CC1(C)CCc2cc3c(cc2O1)OCCC3=O | – | > 100 | – | – | – | > 100 | – | > 100 | – | > 100 | – | > 100 | – | – | > 100 | > 100 | > 100 | – | – | –
O=C(c1ccccc1)[C@H]1Nc2cnccc2C2c3ccccc3CC21 (some centres undefined) | – | 42.9 | – | – | – | > 81.9 | – | 26.9 | – | 74.5 | – | > 62.6 | – | – | 50.5 | 17.8 | 71.9 | – | – | –

SMILES | GI50 [1] [µM] | TGI [1] [µM] | GI50 [2] [µM] | TGI [2] [µM] | GI50 [3] [µM] | TGI [3] [µM] | GI50 [4] [µM] | TGI [4] [µM] | GI50 [5] [µM] | TGI [5] [µM] | GI50 [6] [µM] | TGI [6] [µM] | GI50 [7] [µM] | TGI [7] [µM] | TGI [8] [µM] | TGI [9] [µM] | TGI [10] [µM] | GI50 [8] [µM] | GI50 [9] [µM] | GI50 [10] [µM]
COC(=O)/C(=N\NC(=S)NN)C(C(=O)C(=O)Nc1ccccc1C(N)=O)c1nc2ccccc2[nH]c1=O (centres undefined) | – | > 100 | – | – | – | > 100 | – | > 100 | – | > 100 | – | > 100 | – | – | – | > 100 | – | – | – | –
N#CC(C#N)=Cc1cccc(Oc2ccccc2)c1 | – | 73.9 | – | – | – | > 70.6 | – | > 100 | – | > 100 | – | 35.1 | – | – | 49.9 | > 100 | > 94.9 | – | – | –
Cc1ccc(C(=O)CC(Sc2cccc(Cl)c2Cl)c2ccc(Cl)cc2)cc1C (centres undefined) | 20.8 | 46.5 | 27.9 | 75.2 | 17.2 | 35 | – | – | 19.2 | 52.6 | 22.8 | 53.6 | 23.3 | 48.9 | – | 94.4 | – | – | 18.7 | –
O=C1N[C@@H](O)[C@@H]2ON=C(c3ccccc3)[C@H]12 | – | > 100 | – | – | – | > 100 | – | > 100 | – | > 100 | – | > 100 | – | – | > 100 | > 100 | > 100 | – | – | –
CN(C)c1nc(-c2cccs2)n2nc(-c3ccc(Cl)cc3)cc2n1 | – | – | 3.11 | > 100 | – | – | > 100 | > 100 | – | – | 25.5 | > 100 | – | – | – | > 100 | 10.4 | – | > 100 | 2.26
COc1ccc(C(=O)C(C(=O)CCC(=O)Nc2cccc(C(F)(F)F)c2)c2ccccc2)cc1 (centres undefined) | – | > 100 | – | – | – | > 100 | – | > 100 | – | > 100 | – | > 100 | – | – | > 100 | > 100 | > 100 | – | – | –
CN1CCN(C)C1c1cccc(C2N(C)CCN2C)c1 | – | > 100 | – | – | – | – | – | > 100 | – | – | – | > 100 | – | – | > 100 | > 100 | > 100 | – | – | –
COc1ccc(C2C(N)=NCC2c2ccccn2)cc1 (centres undefined) | – | > 100 | – | – | – | > 100 | – | – | – | > 100 | – | > 100 | – | – | > 100 | > 100 | > 100 | – | – | –
CC/C=C\C/C=C\C1CC(=O)NCCCNCCCCN1 (centres undefined) | – | > 100 | – | – | – | > 100 | – | – | – | > 100 | – | > 100 | – | – | > 100 | – | > 100 | – | – | –
CC1CCCC(C(=O)/C(=C/c2cccc(Cl)c2)C(=O)C(=O)O)C1 (centres undefined) | – | > 100 | – | – | – | > 100 | – | 28.2 | – | > 100 | – | 64.9 | – | – | 38.1 | 48.3 | > 100 | – | – | –
c1cc[c]([Sn]([S]c2cccc3cccnc23)([c]2ccccc2)[c]2ccccc2)cc1 | 0.017 | 0.0352 | – | – | 0.0446 | 0.181 | 0.0196 | 0.0467 | 0.0331 | 0.224 | 0.0725 | 0.393 | – | – | 0.0908 | 0.0744 | 0.0473 | 0.0223 | 0.0158 | –
Clc1ccc(CNc2nc3ccccc3nc2-c2cccs2)c(Cl)c1 | – | > 100 | – | – | – | > 100 | – | > 100 | – | > 100 | – | > 100 | – | – | > 100 | > 100 | – | – | – | –
C=C(COC(C)=O)CC(/C=C(\C)CCC=C(C)C)OC(C)=O (centres undefined) | – | > 100 | – | – | – | > 100 | – | > 100 | – | > 100 | – | > 100 | – | – | > 100 | > 100 | > 100 | – | – | –
CC(O)CN1C(=O)NC(Cc2ccccc2)C1=O (centres undefined) | – | > 100 | – | – | – | > 100 | – | – | – | > 100 | – | > 100 | – | – | > 100 | – | > 100 | – | – | –
c1ccc2c(c1)N=C(c1cccc3ccccc13)CC(c1cccc3ccccc13)S2 (centres undefined) | – | 28.3 | – | – | – | 25.8 | – | 22.5 | – | 41.9 | – | 14.5 | – | – | 10.1 | 4.67 | 19.1 | – | – | –
CC(=O)OCCOCBr | – | > 100 | – | – | – | > 100 | – | > 100 | – | > 100 | – | > 100 | – | – | > 100 | > 100 | > 100 | – | – | –
NC1=NC(=O)C(CC(=O)Nc2ccc([N+](=O)[O-])cc2[N+](=O)[O-])S1 (centres undefined) | – | > 100 | – | – | – | > 100 | – | – | – | > 100 | – | – | – | – | > 100 | > 100 | > 100 | – | – | –
CC(=O)c1c(C)n([O-])c2cc(C)c(C)cc2[n+]1=O | – | > 100 | – | – | – | > 100 | – | > 100 | – | > 100 | – | > 100 | – | – | > 100 | > 100 | > 100 | – | – | –
